Measured values reported in patent US4021556A, “Xanthine oxidase inhibitors” (ICN Pharmaceuticals, Inc., priority 1975, dated 1977).

Legend:
[1] = dose killing 50% of a group of animals in two weeks, injected into the intraparietal cavity; 20160 min; cited from earlier work
[2] = cited from earlier work
[3] = tested on: xanthine oxidase; conditions: metabolite of allopurinol; cited from earlier work
[4] = target: T1, purified milk xanthine oxidase (Bos taurus, UniProt P80457); assay: Xanthine oxidase inhibition, spectrophotometric at 290 nm; assay type: biochemical; conditions: for relative activity (α) compared to allopurinol: ratio to allopurinol (allopurinol = 1); for IC50: xanthine substrate 0.013 micromoles in 3.0 ml, tris HCl buffer pH 7.50, 25° C, unit taken, none in table
T1 construct: purchased Worthington Biochemical Corporation
Description: In this example, the inhibitory activity of the compounds of the invention was determined by recording spectral changes at a constant wavelength of 290 nm, using a Cary Model 15 recording spectrophotometer equipped with a 0-0.1 O.D. slidewire. […] After dissolving in DMSO, the compounds were introduced into the incubation mixture containing 150 micromoles of tris HCl buffer (pH 7.50), 0.6 micromoles EDTA, 0.013 micromoles xanthine, and 20 to 40 micrograms of xanthine oxidase in a final volume of 3.0 milliliters. […] The assay was carried out by mixing all the components in a cuvette at 25° C. The reaction was started by the addition of the enzyme with the aid of a stirrer-adder. Changes in O.D. were measured for several minutes, and the rate (O.D. per minute) was calculated from the spectral change over the first 15 seconds.

T1 sequence (P80457 whole entry): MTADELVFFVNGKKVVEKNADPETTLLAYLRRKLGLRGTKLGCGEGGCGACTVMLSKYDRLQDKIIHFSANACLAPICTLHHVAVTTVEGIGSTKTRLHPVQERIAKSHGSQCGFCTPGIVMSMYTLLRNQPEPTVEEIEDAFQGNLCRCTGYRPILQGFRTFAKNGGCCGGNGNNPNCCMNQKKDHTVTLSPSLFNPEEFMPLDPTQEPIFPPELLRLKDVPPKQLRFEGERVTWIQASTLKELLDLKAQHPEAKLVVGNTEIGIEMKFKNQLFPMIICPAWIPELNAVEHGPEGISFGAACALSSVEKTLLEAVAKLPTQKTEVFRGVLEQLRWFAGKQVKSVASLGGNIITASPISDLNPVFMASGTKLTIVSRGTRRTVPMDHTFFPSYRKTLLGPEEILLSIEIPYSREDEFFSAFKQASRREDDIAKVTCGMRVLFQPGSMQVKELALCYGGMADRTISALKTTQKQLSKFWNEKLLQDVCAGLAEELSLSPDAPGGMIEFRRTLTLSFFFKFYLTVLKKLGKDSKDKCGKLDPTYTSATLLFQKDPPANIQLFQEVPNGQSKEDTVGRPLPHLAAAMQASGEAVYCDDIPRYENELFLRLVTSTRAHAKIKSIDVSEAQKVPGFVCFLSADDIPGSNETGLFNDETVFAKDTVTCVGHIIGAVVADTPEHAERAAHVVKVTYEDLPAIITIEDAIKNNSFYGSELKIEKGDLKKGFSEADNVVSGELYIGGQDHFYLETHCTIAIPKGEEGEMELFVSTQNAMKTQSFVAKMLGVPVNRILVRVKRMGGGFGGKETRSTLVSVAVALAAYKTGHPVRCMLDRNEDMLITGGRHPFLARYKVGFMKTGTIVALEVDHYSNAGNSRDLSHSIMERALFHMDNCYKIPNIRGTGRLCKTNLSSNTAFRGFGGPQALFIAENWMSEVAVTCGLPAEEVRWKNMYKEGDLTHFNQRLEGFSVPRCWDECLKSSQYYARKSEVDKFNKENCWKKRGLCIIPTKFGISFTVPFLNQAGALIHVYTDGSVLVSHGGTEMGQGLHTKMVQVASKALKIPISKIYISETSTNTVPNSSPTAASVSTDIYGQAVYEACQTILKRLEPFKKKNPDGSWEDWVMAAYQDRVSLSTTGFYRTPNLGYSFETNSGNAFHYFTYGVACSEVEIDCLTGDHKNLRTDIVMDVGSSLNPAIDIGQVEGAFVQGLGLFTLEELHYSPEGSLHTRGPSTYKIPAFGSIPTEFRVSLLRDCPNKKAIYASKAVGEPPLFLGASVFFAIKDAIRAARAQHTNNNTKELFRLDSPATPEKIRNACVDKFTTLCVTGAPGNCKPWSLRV

Compound	relative activity (α) compared to allopurinol [4]	further results
Oc1ncnc2[nH]ncc12 [Allopurinol, allopurinol]		LD50 [1]: about 150 milligrams per kilogram of body weight; metabolism in vivo [2]: gradually metabolized in vivo to 4,6-dihydroxy pyrazolo[3,4-d]pyrimidine
Oc1nc(O)c2cn[nH]c2n1 [4,6-dihydroxy pyrazolo[3,4-d]pyrimidine]		inhibitor effectiveness compared with allopurinol [3]: not as effective an inhibitor as is allopurinol
3-(p-tolyl)pyrazolo[1,5,a]pyrimidine-5,7-diol [(3)]	151	
3-phenyl pyrazolo[1,5,a]pyrimidine-5,7-diol [Compound (1)]	52	
3-(p-acetamidophenyl)pyrazolo[1,5,a]pyrimidine-5,7-diol [(6)]	200	
3-(p-bromophenyl)pyrazolo[1,5,a]pyramidine-5,7-diol [Compound (4)]	56	
Oc1ccnc2c(-c3ccccc3)cnn12 [Compound (11), 3-phenylpyrazolo[1,5a]pyrimidine-7-ol]	33	IC50 [4]: 0.15 µM

Second part, led by results:

relative activity (α) compared to allopurinol [4]	Compound	further results
131	3-(p-chlorophenyl)pyrazolo[1,5,a]pyrimidine-5,7-diol [(5)]	
172	3-piperonylpyrazolo[1,5,a]pyrimidine-5,7-diol [(7)]	
20	3-(1'-naphthyl)pyrazolo[1,5,a]pyrimidine-5,7-diol [Compound (9)]	
116	3-(m-tolyl)pyrazolo[1,5,a]pyrimidine-5,7-diol [(2)]	
50	Cc1cccc(-c2cnn3c(O)ccnc23)c1 [Compound (10), 3-(m-tolyl)pyrazolo[1,5a]pyrimidin-7-ol]	IC50 [4]: 0.1 µM
116	3-(3'-pyridyl)pyrazolo[1,5,a]pyrimidine-5,7-diol [(8)]	
